# Source: PMC10864382, “Targeting yeast topoisomerase II by imidazo and triazoloacridinone derivatives resulting in their antifungal activity” (Scientific Reports, 2024)
# Molecular target: T1, yeast topoisomerase II (yTOPOII) (Saccharomyces cerevisiae, UniProt P06786)
# T1 construct: gene TOP2; purified enzyme, commercial (Inspiralis Limited, UK)
# T1 sequence (P06786 1-1428): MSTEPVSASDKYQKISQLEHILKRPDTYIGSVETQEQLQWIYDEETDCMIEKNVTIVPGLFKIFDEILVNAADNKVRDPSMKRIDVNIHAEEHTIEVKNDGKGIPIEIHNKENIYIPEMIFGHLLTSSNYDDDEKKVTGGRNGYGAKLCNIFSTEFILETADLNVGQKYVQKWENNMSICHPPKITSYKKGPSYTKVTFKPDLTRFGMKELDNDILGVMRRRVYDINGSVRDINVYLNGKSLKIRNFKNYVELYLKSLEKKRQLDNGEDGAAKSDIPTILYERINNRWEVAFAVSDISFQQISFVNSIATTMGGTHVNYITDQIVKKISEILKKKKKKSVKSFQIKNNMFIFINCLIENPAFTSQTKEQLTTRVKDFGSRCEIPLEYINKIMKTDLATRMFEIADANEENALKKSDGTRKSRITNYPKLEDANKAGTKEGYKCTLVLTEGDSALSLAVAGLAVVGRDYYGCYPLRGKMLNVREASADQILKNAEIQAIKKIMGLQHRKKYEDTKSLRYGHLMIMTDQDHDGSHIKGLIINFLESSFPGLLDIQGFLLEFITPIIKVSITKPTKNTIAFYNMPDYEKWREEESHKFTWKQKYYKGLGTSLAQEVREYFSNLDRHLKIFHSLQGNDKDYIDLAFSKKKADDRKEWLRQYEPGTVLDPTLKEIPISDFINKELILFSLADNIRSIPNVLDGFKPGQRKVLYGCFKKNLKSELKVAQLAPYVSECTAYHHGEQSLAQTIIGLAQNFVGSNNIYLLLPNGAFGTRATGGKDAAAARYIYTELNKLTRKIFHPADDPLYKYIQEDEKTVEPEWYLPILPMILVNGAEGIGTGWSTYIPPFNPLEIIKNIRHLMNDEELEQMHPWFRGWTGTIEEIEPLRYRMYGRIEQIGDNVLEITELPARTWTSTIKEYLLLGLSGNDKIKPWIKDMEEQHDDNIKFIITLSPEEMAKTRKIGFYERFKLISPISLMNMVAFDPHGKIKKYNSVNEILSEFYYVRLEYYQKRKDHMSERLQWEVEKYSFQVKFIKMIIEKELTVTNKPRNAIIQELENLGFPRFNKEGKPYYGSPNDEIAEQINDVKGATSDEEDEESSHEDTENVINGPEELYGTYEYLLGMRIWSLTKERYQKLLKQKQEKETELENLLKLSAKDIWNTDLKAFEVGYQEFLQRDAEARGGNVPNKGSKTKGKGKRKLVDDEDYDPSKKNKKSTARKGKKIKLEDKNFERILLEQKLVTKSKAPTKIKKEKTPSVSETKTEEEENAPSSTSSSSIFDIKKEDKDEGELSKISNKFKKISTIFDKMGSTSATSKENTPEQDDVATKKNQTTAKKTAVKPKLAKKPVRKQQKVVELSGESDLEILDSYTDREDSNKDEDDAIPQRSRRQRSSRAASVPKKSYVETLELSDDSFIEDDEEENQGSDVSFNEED
# Test: gel-based relaxation of supercoiled plasmid DNA, densitometry
# Format: biochemical
# Excerpt: gel-based relaxation of supercoiled plasmid DNA, densitometry on yeast topoisomerase II (yTOPOII)
row,IC50,Structure (SMILES)
1,18.2 ± 1.4 µM,CN(C)CCCNc1ccc2nnn3c4ccc(O)cc4c(=O)c1c23 [C-1305]
2,13.7 ± 1.1 µM,CCN(CC)CCNc1ccc2ncn3c4ccc(OC)cc4c(=O)c1c23 [C-1330]
3,13.4 ± 1.1 µM,"Cc1ccc2c(c1)c(=O)c1c(NCCCN(C)C)ccc3nnn2c31 [IKE1, 5-[-(3′-Dimethylamino)propylamino]-8-methyl-6H-[1–3]-triazolo[4,5,l-de]acridin-6-one]"
4,13.3 ± 1.1 µM,"CCN(CC)CCCNc1ccc2nnn3c4ccc(C)cc4c(=O)c1c23 [IKE2, 5-[-(3′-Diethylamino)propylamino]-8-methyl-6H-[1–3]-triazolo[4,5,l-de]acridin-6-one]"
5,13.2 ± 1.1 µM,"COc1ccc2c(c1)c(=O)c1c(NCCCN(C)C)ccc3nnn2c31 [IKE3, 5-[-(3′-Dimethylamino)propylamino]-8-methoxy-6H-[1–3]-triazolo[4,5,l-de]acridin-6-one]"
6,13.3 ± 1.2 µM,"CCN(CC)CCCNc1ccc2nnn3c4ccc(OC)cc4c(=O)c1c23 [IKE4, 5-[-(3′-Diethylamino)propylamino]-8-methoxy-6H-[1–3]-triazolo[4,5,l-de]acridin-6-one]"
7,7.7 ± 1.1 µM,"COc1ccc2c(c1)c(=O)c1c(NCCCN)ccc3nnn2c31 [IKE5, 5-[-(3′-Aminopropyl)amino]-8-methoxy-6H-[1–3]-triazolo[4,5,l-de]acridin-6-one]"
8,10.9 ± 1.1 µM,"Cc1ccc2c(c1)c(=O)c1c(NCCCN)ccc3nnn2c31 [IKE6, 5-[-(3′-Aminopropyl)amino]-8-methyl-6H-[1–3]-triazolo[4,5,l-de]acridin-6-one]"
9,13.4 ± 1.1 µM,"COc1ccc2c(c1)c(=O)c1c(NCCCNC(=O)[C@@H](N)CCCCN)ccc3nnn2c31 [IKE7, N′-{3-[(8-methoxy-6-oxo-6H-[1,2,3]triazolo[4,5,1-de]acridin-5-yl)amino]propyl} lysinamide]"
10,15.2 ± 1.2 µM,"Cc1ccc2c(c1)c(=O)c1c(NCCCNC(=O)[C@@H](N)CCCCN)ccc3nnn2c31 [IKE8, N′-{3-[(8-methyl-6-oxo-6H-[1,2,3]triazolo[4,5,1-de]acridin-5-yl)amino]propyl} lysinamide]"
11,15.5 ± 1.3 µM,"Cc1ccc2c(c1)c(=O)c1c(NCCN)ccc3ncn2c31 [IKE10, 5-[(2-aminoethyl)amino]-8-methyl-6H-imidazo[4,5,1-de]acridin-6-one]"
12,14.9 ± 1.1 µM,"Cc1ccc2c(c1)c(=O)c1c(NCCNC(=O)[C@@H](N)CCCCN)ccc3ncn2c31 [IKE11, N-{2-[(8-methyl-6-oxo-6H-imidazo[4,5,1-de]acridin-5-yl)amino]ethyl}lysinamide]"
13,10.9 ± 1.1 µM,"NCCNc1ccc2ncn3c4ccc(O)cc4c(=O)c1c23 [IKE12, 5-[(2-aminoethyl)amino]-8-hydroxy-6H-imidazo[4,5,1-de]acridin-6-one]"
14,6.2 ± 1.2 µM,"COc1ccc2c(c1)c(=O)c1c(NCCN)ccc3ncn2c31 [IKE13, 5-[(2-aminoethyl)amino]-8-methoxy-6H-imidazo[4,5,1-de]acridin-6-one]"
15,14.7 ± 1.1 µM,"COc1ccc2c(c1)c(=O)c1c(NCCNC(=O)[C@@H](N)CCCCN)ccc3ncn2c31 [IKE14, N-{2-[(8-methoxy-6-oxo-6H-imidazo[4,5,1-de]acridin-5-yl)amino]ethyl}lysinamide]"

row,Structure (SMILES),IC50
1,CCN(CC)CCNc1ccc2ncn3c4ccc(O)cc4c(=O)c1c23 [C-1311],16.6 ± 1.3 µM
